Experimental data from patent publication US20250257059A1, “PROTEIN TYROSINE PHOSPHATASE INHIBITORS AND USES THEREOF” (Nerio Therapeutics, Inc., priority 2022, published 2025).
Read-outs that look alike come from different tables or passages of the source.

Key:
[1] = system: murine B16F10 melanoma cell line; test: B16F10 IFNγ-induced cellular growth inhibition assay (xCELLigence RTCA); format: cell-based; settings: B16F10 cells, 1 ng/mL mouse IFNγ, AUC of growth curve, read-out: B16 IFNγ Mediated Growth Inhibition Assay: AVG IC50
[2] = target: full-length human PTPN2 (TC45) (1-387) (Homo sapiens (Human), UniProt P17706); test: Enzymatic assay used to determine potency of PTPN2 inhibitors (full length PTPN2 DiFMUP assay); format: biochemical; settings: 0.5 nM PTPN2, 100 μM DiFMUP, 30 min at room temperature
Chain of full-length human PTPN2 (TC45) (1-387) (P17706 other isoform, or with tags, fused parts or gaps): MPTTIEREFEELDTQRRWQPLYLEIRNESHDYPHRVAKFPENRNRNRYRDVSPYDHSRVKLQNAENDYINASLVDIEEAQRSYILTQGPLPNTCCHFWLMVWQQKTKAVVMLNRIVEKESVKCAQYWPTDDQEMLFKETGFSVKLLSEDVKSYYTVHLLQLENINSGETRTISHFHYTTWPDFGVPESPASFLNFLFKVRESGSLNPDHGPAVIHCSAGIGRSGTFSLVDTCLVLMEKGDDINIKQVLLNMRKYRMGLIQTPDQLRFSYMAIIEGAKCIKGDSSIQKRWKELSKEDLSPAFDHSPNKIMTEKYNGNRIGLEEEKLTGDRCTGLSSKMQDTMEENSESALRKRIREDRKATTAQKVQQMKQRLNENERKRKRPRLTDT

IC50 ([1]; 48 hours) [nM]	IC50 ([1]; Mus musculus, B16-F10, 48 h) [nM]	SMILES	IC50 [2] [nM]
	509	C[C@H]1CCN(CCc2cc(O)c(N3CC(=O)NS3(=O)=O)c(F)c2)C1 [Example 139]	2
	370	O=C1CN(c2c(O)cc(CCN3CC(CF)C3)cc2F)S(=O)(=O)N1 [Example 141]	3
	542	O=C1CN(c2c(O)cc(CCN3CC(CC(F)(F)F)C3)cc2F)S(=O)(=O)N1 [Example 142]	3

Continued, compound first:

SMILES	IC50 ([1]; 48 hours) [nM]	IC50 ([1]; Mus musculus, B16-F10, 48 h) [nM]	IC50 [2] [nM]
CC(C)C1CN(CCc2cc(O)c(N3CC(=O)NS3(=O)=O)c(F)c2)C1 [Example 132]	579		3
O=C1CN(c2c(O)cc(CCN3CC4CCC3C4)cc2F)S(=O)(=O)N1 (stereo not drawn) [Example 133]		1040	3
C[C@@H]1CCN(CCc2cc(O)c(N3CC(=O)NS3(=O)=O)c(F)c2)C1 [Example 138]		406	2
